Here are results for 3 molecules from paper PMC8546428, “Convergent olfactory trace amine-associated receptors detect biogenic polyamines with distinct motifs via a conserved binding site” (The Journal of Biological Chemistry, 2021).

Substitutions are numbered along the chain they refer to.

The target in one assay is T1, sTAAR365 Y6.51L (Petromyzon marinus, UniProt A0A678XMK4, Y272L).
T1 sequence (A0A678XMK4 1-365 Y272L): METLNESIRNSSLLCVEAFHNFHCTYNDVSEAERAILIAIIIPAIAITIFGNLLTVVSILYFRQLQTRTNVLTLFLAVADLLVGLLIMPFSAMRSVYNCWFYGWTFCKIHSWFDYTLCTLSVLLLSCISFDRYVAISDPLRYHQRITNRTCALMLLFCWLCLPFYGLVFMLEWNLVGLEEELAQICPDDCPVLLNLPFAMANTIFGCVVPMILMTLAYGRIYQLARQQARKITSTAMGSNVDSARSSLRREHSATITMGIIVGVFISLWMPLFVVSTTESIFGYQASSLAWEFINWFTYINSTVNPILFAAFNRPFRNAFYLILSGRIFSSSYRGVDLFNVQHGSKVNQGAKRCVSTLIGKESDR
Nature of the assay: cell-based.

Another assay has as its target T2, sTAAR365 W7.40Y (Petromyzon marinus, UniProt A0A678XMK4, W296Y).
T2 sequence (A0A678XMK4 1-365 W296Y): T1 sequence (A0A678XMK4 1-365 Y272L) with L272Y, W296Y
The experiment in a line: cell-based.

The target of a further assay is sTAAR365 E7.36Q (Petromyzon marinus, UniProt A0A678XMK4, E292Q). Nature of the assay: cell-based.
sTAAR365 E7.36Q, sequence (A0A678XMK4 whole entry E292Q): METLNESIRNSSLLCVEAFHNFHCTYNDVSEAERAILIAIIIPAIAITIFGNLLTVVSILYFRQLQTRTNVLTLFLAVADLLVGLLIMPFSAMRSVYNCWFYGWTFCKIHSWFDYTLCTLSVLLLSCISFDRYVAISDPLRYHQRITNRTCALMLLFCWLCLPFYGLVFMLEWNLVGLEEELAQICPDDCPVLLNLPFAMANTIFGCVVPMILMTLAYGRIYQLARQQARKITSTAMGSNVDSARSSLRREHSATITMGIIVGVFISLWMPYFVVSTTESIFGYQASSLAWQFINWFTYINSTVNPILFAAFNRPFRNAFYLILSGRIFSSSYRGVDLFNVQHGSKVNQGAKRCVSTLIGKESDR
A further assay relates to sTAAR348. The conditions noted are these: expressed in HEK293T cells; cited from earlier work.
The next assay addresses sTAAR365 T7.42S (Petromyzon marinus, UniProt A0A678XMK4, T298S). The experiment in a line: cell-based.
In another assay the target is sTAAR365 Y7.43L (Petromyzon marinus, UniProt A0A678XMK4, Y299L). Nature of the assay: cell-based.
sTAAR365 Y7.43L, sequence (A0A678XMK4 whole entry Y299L): as the sequence (A0A678XMK4 whole entry E292Q) above, with Q292E, Y299L counted along it
In a further assay the target is T3, sTAAR365 T7.42V (Petromyzon marinus, UniProt A0A678XMK4, T298V).
T3 sequence (A0A678XMK4 1-365 T298V): T1 sequence (A0A678XMK4 1-365 Y272L) with L272Y, T298V
The experiment in a line: cell-based.

A further assay has as its target sTAAR365 Y7.43F (Petromyzon marinus, UniProt A0A678XMK4, Y299F). Nature of the assay: cell-based.
Assay [1] concerns the target T4, sTAAR365 D3.32E (Petromyzon marinus, UniProt A0A678XMK4, D114E).
T4 sequence (A0A678XMK4 1-365 D114E): T1 sequence (A0A678XMK4 1-365 Y272L) with D114E, L272Y
Nature of the assay: cell-based.

For another assay, the target named is sTAAR365 W7.40F (Petromyzon marinus, UniProt A0A678XMK4, W296F). The experiment in a line: cell-based.
sTAAR365 W7.40F, sequence (A0A678XMK4 whole entry W296F): as the sequence (A0A678XMK4 whole entry E292Q) above, with Q292E, W296F counted along it
A further assay deals with T5, sTAAR365 T7.42A (Petromyzon marinus, UniProt A0A678XMK4, T298A).
T5 sequence (A0A678XMK4 1-365 T298A): T1 sequence (A0A678XMK4 1-365 Y272L) with L272Y, T298A
The experiment in a line: cell-based.

Assay [2] addresses T4, sTAAR365 D3.32E.

sTAAR365 T7.42S, sequence (A0A678XMK4 whole entry T298S): as the sequence (A0A678XMK4 whole entry E292Q) above, with Q292E, T298S counted along it
sTAAR365 Y7.43F, sequence (A0A678XMK4 whole entry Y299F): as the sequence (A0A678XMK4 whole entry E292Q) above, with Q292E, Y299F counted along it

As a reminder, the EC50 is the midpoint of the concentration-response curve. Lower therefore signals a more potent agent. `NCCCNCCCCNCCCN` [spermine]: the EC50 is more than 500 µM at sTAAR365 Y6.51L, 530 ± 259 µM on sTAAR365 W7.40Y, more than 500 µM on sTAAR365 E7.36Q and 64 ± 7 µM at sTAAR365 T7.42S. Moreover, in the assay on sTAAR348, the “response of sTAAR348” value is reported as “responds”.
Take `NCCCCCN` [cadaverine]: the EC50 is 1 ± 0.2 µM on sTAAR365 Y7.43L; more than 100 µM at sTAAR365 Y6.51L; 0.127 ± 0.041 µM at sTAAR365 W7.40Y; 0.06 ± 0.011 µM at sTAAR365 E7.36Q; 9 ± 2 µM on sTAAR365 T7.42V; 2 ± 0.2 µM on sTAAR365 Y7.43F. For the same molecule, the EC50 turned out to be 0.126 ± 0.013 µM at sTAAR365 T7.42S, 14 ± 0.5 µM on sTAAR365 D3.32E [1], 0.223 ± 0.037 µM at sTAAR365 W7.40F and 31 ± 24 µM at sTAAR365 T7.42A. At sTAAR365 D3.32E [2], the “Hill slope of concentration-response curve” value came to 1.44. On sTAAR365 D3.32E [2], the “increase of EC50 vs wild-type sTAAR365” value is given as “three”.
`NCCCCN` [putrescine]: the EC50 was more than 1000 µM at sTAAR365 Y7.43L; more than 500 µM on sTAAR365 W7.40Y; more than 500 µM at sTAAR365 T7.42V; more than 1000 µM at sTAAR365 Y7.43F; more than 500 µM at sTAAR365 D3.32E [1]; more than 500 µM on sTAAR365 W7.40F. The molecule also registered an EC50 at sTAAR365 T7.42A of more than 500 µM. In addition, the “increase of EC50 vs wild-type sTAAR365” value at sTAAR365 D3.32E [2] is recorded as “one”.
